How the values were obtained:
U266 cells = assay: IL-6-induced proliferation of U266 cells (thymidine incorporation, MTT); type: cell-based, human; settings: serum starved 12 h, IL-6 48 h
Experimental: (§1) FIGS. 7A-B show& that IL-6 induces proliferation of human multiple myeloma cells and curcumin inhibits it. […] Cell proliferation assays were performed as described below. Results are shown as mean (±s.d.) of percent [^3H] thymidine incorporation or percent proliferation by MTT of triplicate cultures compared to the untreated control.
(§2) The antiproliferative effects of curcumin against different multiple myeloma cell lines were determined by the MTT dye uptake method as described earlier (28). Briefly, the cells (5000/well) were incubated in triplicate in a 96-well plate in the presence or absence of indicated test samples in a final volume of 0.1 ml for 24 h at 37° C. […] The OD at 570 nm was measured using a 96-well multiscanner autoreader (Dynatech MR 5000), with the extraction buffer serving as blank. Percent cell viability cell viability was calculated using the following formula: Percent cell viability=(OD of the experiment samples/OD of the control)×100.
(§3) The antiproliferative effects of curcumin were also monitored by the thymidine incorporation method. […] Six hours before the completion of experiment, cells were pulse treated with 0.5 μCi [^3H]thymidine, and the uptake of [^3H]thymidine was monitored using a Matrix-9600 β-counter (Packard Instruments, Downers Grove, Ill.). […]
(§4) Whether curcumin suppresses the proliferative effects of IL-6 was determined.

STAT3 phosphorylation [1] = assay: IL-6-induced STAT3 phosphorylation in JMAR cells (Western blot); type: cell-based, human; settings: IL-6 10 ng/ml
Experimental: JMAR cells (2×10^6 cells) were treated with IL-6 (10 ng/ml) for the indicated time and whole cell extracts were prepared. These extracts (30 μg) were resolved on 7.5% SDS-PAGE, electrotransferred to a nitrocellulose membrane and probed for p-STAT3 (upper panel) and stripped and re-probed for STAT3 (lower panel). […] JMAR cells were pretreated with curcumin (50 μM) for indicated durations and stimulated with IL-6 (10 ng/ml) for 10 mins and whole cell extract prepared and probed as mentioned earlier.
JMAR cells were treated with IL-6 for different durations and the levels of p-STAT3 and STAT3 were examined. Treatment with IL-6 as early as 5 mins induced STAT3 phosphorylation in JMAR cells (FIG. 14A, upper panel). However, STAT3 levels were unaffected (FIG. 14A, lower panel).
Further, since IL-6 induced STAT3 phosphorylation in JMAR cells, the ability of curcumin to inhibit this STAT3 phosphorylation was also examined. JMAR cells were pretreated with curcumin for different durations and stimulated with IL-6 for 10 minutes. Both the status of p-STAT3 and STAT3 were determined in the whole cell extracts of these cells. Treatment with curcumin for as early as 30 minutes led to decline in the phosphorylation of STAT3 which declined further with increased exposure to curcumin. Exposure to curcumin for 2 hours inhibited STAT3 phosphorylation in JMAR cells (FIG. 14B, upper panel). The STAT3 levels were unaffected by this treatment (FIG. 14B, lower panel).

MM.1R cells = assay: IL-6-induced proliferation of MM.1R cells; type: cell-based, human; settings: serum starved 12 h, IL-6 48 h
Experimental: as §1, §2, §3, §4

STAT3 phosphorylation [2] = assay: IL-6-inducible STAT3 phosphorylation in RPMI 8226 cells (Western blot); type: cell-based, human; settings: IL-6 10 ng/ml
Experimental: FIGS. 3A-C show& that IL-6 induces STAT3 phosphorylation in human multiple myeloma RPMI 8226 cells and curcumin inhibits it. […] U266, RPMI 8226, MM.1S, MM.1R and OCl cells (2×10^6) were lysed, and 30 μg of whole-cell extracts were resolved on 7.5% SDS-PAGE, electrotransferred to a nitrocellulose membrane, and probed for phosphorylated-STAT3 (upper panel) and STAT3 (lower panel). […] Thirty micrograms of whole cell extracts were resolved on 7.5% SDS-PAGE, electrotransferred to a nitrocellulose membrane, and probed for the phosphorylated-STAT3 (upper panel) and stripped and reprobed for STAT3 (middle panel) and β-actin (lower panel).
(§5) For detection of STAT proteins, whole-cell extracts were prepared by lysing the curcumin-treated cells in lysis buffer (20 mM Tris, pH 7.4, 250 mM NaCl, 2 mM EDTA, pH 8.0, 0.1% Triton-X100, 0.01 mg/ml aprotinin, 0.005 mg/ml leupeptin, 0.4 mM PMSF, and 4 mM NaVO4). Lysates were then spun at 14000 rpm for 10 min to remove insoluble material, and resolved on a 7.5% gel. After electrophoresis, the proteins were electrotransferred to a nitrocellulose membrane, blocked with 5% nonfat milk, and probed with anti-STAT antibodies (1:1000) overnight at 4° C. The blot was washed, exposed to HRP-conjugated secondary antibodies for 1 h, and finally examined by chemiluminescence (ECL, Amersham Pharmacia Biotech. Arlington Heights, Ill.).
Since IL-6 is a growth factor for multiple myeloma and induces STAT3 phosphorylation (5, 6, 15), whether curcumin could inhibit IL-6-induced STAT3 phosphorylation was examined. […] IL-6 induced phosphorylation of STAT3 as early as 5 min and began to decline at 60 minutes (FIG. 3B). RPMI 8226 cells were then incubated with curcumin for different times and examined for IL-6-inducible STAT3 phosphorylation.
Exposure of cells to curcumin for 4 hours was sufficient to completely suppress IL-6-induced STAT3 phosphorylation. Curcumin alone had no effect on STAT3 phosphorylation in these cells (data not shown).

RPMI 8226 cells = assay: IL-6-induced proliferation of RPMI 8226 cells; type: cell-based, human; settings: serum starved 12 h, IL-6 48 h
Experimental: as §1
The antiproliferative effects of curcumin were also monitored by the thymidine incorporation method. For this, 5000 cells in 100 μl medium were cultured in triplicate in 96-well plates in the presence or absence of curcumin for 24 h. Six hours before the completion of experiment, cells were pulse treated with 0.5 μCi [^3H]thymidine, and the uptake of [^3H]thymidine was monitored using a Matrix-9600 β-counter (Packard Instruments, Downers Grove, Ill.).
To reconfirm previous reports (5, 6, 15, 31) that IL-6 induces proliferation of MM cells, U266, RPMI 8226, MM.1 and MM.1R were serum-starved for 12 h and then cultured them in the absence or presence of different concentrations of IL-6 for 48 h.

STAT3 phosphorylation [3] = assay: STAT3 phosphorylation in MM.1S and MM.1R cells after TNF, LT or IL-6 (Western blot); type: cell-based, human; settings: IL-6 10 minutes (positive control)
Experimental: The cell proliferation assay was performed as described below. Results are shown as mean (±s.d. indicated by error bar) of percent [^3H] thymidine incorporation of triplicate cultures compared to the untreated control. […] Cells were treated with IL-6 for 10 minutes as a positive control for STAT3 phosphorylation. Thirty micrograms of whole cell extract was were resolved on 7.5% SDS-PAGE, electrotransferred to a nitrocellulose membrane, and probed for phosphorylated-STAT3 (upper panel), stripped, and reprobed for STAT3 (lower panel).
as §5
MM.1S and MM.1R cells were serum starved for 12 h and then treated with TNF or lymphotoxin in the serum free medium.

MM.1 cells = assay: IL-6-induced proliferation of MM.1 cells; type: cell-based, human; settings: serum starved 12 h, IL-6 48 h
Experimental: as §1, §2, §3, §4

[4] = system: MDA 1986LN, JMAR and MDA 686LN cells; assay: IL-6-induced proliferation of human HNSCC cells (thymidine incorporation); type: cell-based; settings: serum starved 12 hrs, IL-6 48 hrs
Experimental: Human head and neck squamous cell carcinoma cells MDA 1986LN, JMAR and MDA 686LN were serum starved for 12 hrs. These cells were then cultured with the indicated concentrations of IL-6 for 48 hrs in serum-free medium. Cell viability was determined by thymidine incorporation method.
The present invention also investigated the effect of IL-6 on the proliferation of human HNSCC cells such as MDA 1986LN, JMAR and MDA 686LN by thymidine incorporation method. These cells were serum starved for 12 hrs and then cultured with different concentrations of IL-6 for 48 hrs in serum-free medium.

multiple myeloma cells = assay: Proliferation of multiple myeloma cells, curcumin vs AG490 (data not shown); type: cell-based, human; settings: 100 μM, 24 hours (data not shown)
STAT3 phosphorylation [5] = assay: Constitutive STAT3 phosphorylation in U266 cells (Western blot); type: cell-based, human
Experimental: U266 cells (2×10^6) were treated with the indicated concentrations of curcumin for 1 h, or treated with 50 μM curcumin for the indicated durations and levels of phosphorylated-STAT3 (upper panel) and STAT3 (lower panel) were examined in whole cell extracts by Western Blotting. […] U266 cells (2×10^6) were treated with 50 μM curcumin for indicated durations, and examined for phosphorylated and nonphosphorylated-STAT3, and STAT5. […] U266 cells (2×10^6) were preincubated with curcumin (50 μM) for indicated durations before treatment with IFN-α (10 ng/ml) for additional 30 min and then examined for phosphorylated and nonphosphorylated-STAT1.
U266 cells (2×10^6 cells) were treated with 50 μM curcumin for the indicated durations (left panels) or treated for 1 h and washed with PBS two times to remove curcumin before resuspending in fresh medium. Cells were removed at indicated times and lysed to prepare the whole cell extract (right panels). Thirty micrograms of whole cell extracts were resolved on 7.5% SDS-PAGE, electrotransferred to a nitrocellulose membrane, probed for the phosphorylated-STAT3 (upper panels) and stripped and reprobed for STAT3 (middle panels) and β-actin (lower panels).
Thirty micrograms of whole-cell extract was resolved on 7.5% SDS-PAGE, electrotransferred to a nitrocellulose membrane, probed for the phospho-STAT3 (upper panel), stripped, and reprobed for STAT3 (middle panel) and β-actin (lower panel).
as §5
Whether curcumin inhibits the constitutive STAT3 phosphorylation in U266 was investigated. U266 cells were incubated either with different concentrations of curcumin for 1 h or with 50 μM curcumin for different times. Curcumin inhibited the constitutively active STAT3 in a dose-(FIG. 1A) and time-(FIG. 1B) dependent manner. Curcumin-induced inhibition could be observed as early as 10 min and with a concentration as low as 10 μM.
Whether curcumin-induced inhibition of STAT3 phosphorylation was reversible was further examined. U266 cells were first treated for 60 min with curcumin, and then the cells were washed twice with PBS to remove curcumin. The cells were then cultured in the fresh medium for various durations, and the levels of phosphorylated STAT3 were measured.
In comparison, treatment of cells with 50 μM curcumin for 60 minutes was sufficient to inhibit STAT3 phosphorylation (see FIGS. 1A and 1B).

STAT3 phosphorylation [6] = assay: as above; type: cell-based, human; remark: listed apart in the source
STAT3 phosphorylation [7] = assay: Constitutive STAT3 phosphorylation in MDA 1986LN cells (Western blot); type: cell-based, human; settings: AG490 100 μM, 8 hrs
Experimental: TU167, MDA 1986LN, TU 686, MDA 686LN and JMAR cells (2×10^6 cells) were lysed and whole cell extracts (30 μg) were resolved on 7.5% SDS-PAGE, electrotransferred to a nitrocellulose membrane and probed for phosphorylated-STAT3 (p-STAT3) and total STAT3 proteins. […] MDA 1986LN cells (2×10^6 cells) were treated with curcumin (50 μM) for indicated durations or with indicated concentrations of curcumin for 1 h and levels of p-STAT3 (upper panels) and STAT3 (lower panels) were examined in whole cell extracts by Western blotting.
MDA 1986LN cells (2×10^6 cells) were treated with curcumin (50 μM) for the indicated durations (upper panels) or treated for 1 h and washed twice with PBS to remove curcumin before re-suspending in fresh medium. Cells were removed at indicated times and lysed to prepare the whole cell extract (lower panels). The whole cell extracts (30 μg) were resolved on 7.5% SDS-PAGE, electrotransferred to a nitrocellulose membrane, probed for the p-STAT3 (upper panels) and striped and reprobed for STAT3 (lower panels).
MDA 1986LN cells (2×10^6 cells) were treated with indicated concentrations of AG490 for 8 h and whole extracts prepared. These whole-cell extracts (30 μg) were resolved on 7.5% SDS-PAGE, electrotransferred to a nitrocellulose membrane, probed for p-STAT3 (upper panel), striped and reprobed for STAT3 (middle panel) and β-actin (lower panel). […] The cells were treated with AG490 (100 μM) for the indicated durations and whole cell extracts prepared and analyzed as mentioned earlier. FIG. 15C compares the effect of curcumin and AG490 on proliferation of MDA 1986LN cells by MTT assay.
Since STAT3 was constitutively phosphorylated in MDA 1986LN cells, the ability of curcumin to inhibit the constitutive STAT3 phosphorylation was examined. MDA 1986LN cells were treated either with curcumin (50 μM) for different durations or with different concentrations of curcumin for 1 h and the p-STAT3 levels and STAT3 levels were determined. Curcumin inhibited the constitutively active STAT3 in a time-(FIG. 11B) and a dose-(FIG. 11C) manner. This curcumin-induced inhibition could be observed as early as 30 min and with a concentration as low as 25 μM.
MDA 1986LN cells were treated with curcumin for indicated times or for 1 h and the cells were washed twice with PBS to remove curcumin. The cells were then cultured in media for various durations and the levels of phosphorylated STAT3 were determined. […] However, the STAT3 levels were unaffected by curcumin treatment.
The concentration and the exposure time for AG490 to inhibit STAT3 phosphorylation in MDA 1986LN cells were determined. These cells were incubated with either different concentrations of AG490 or with 100 μM of AG490 for different durations and the levels of p-STAT3 and STAT3 were assessed.

| Compound | proliferation of U266 cells induced by IL-6 (U266 cells) | earliest time of IL-6-induced STAT3 phosphorylation (STAT3 phosphorylation [1]) [min] | proliferation of MM.1R cells induced by IL-6 (MM.1R cells) | earliest time of IL-6-induced phosphorylation of STAT3 (STAT3 phosphorylation [2]) [min] | time at which IL-6-induced STAT3 phosphorylation began to decline (STAT3 phosphorylation [2]) [min] | proliferation response of RPMI 8226 cells to IL-6 (RPMI 8226 cells) | induction of STAT3 phosphorylation (STAT3 phosphorylation [3]) | proliferation of MM.1 cells induced by IL-6 (MM.1 cells) | proliferation of human HNSCC cells induced by IL-6 [4] | proliferation of multiple myeloma cells (multiple myeloma cells) | dose needed to suppress STAT3 phosphorylation (comparison AG490 vs curcumin) (STAT3 phosphorylation [5]) [µM] | exposure needed to completely inhibit STAT3 phosphorylation (STAT3 phosphorylation [6]; 100 μM AG490) [h] | dose needed to completely inhibit STAT3 phosphorylation (STAT3 phosphorylation [6]; 8 h) [µM] | inhibition of STAT3 phosphorylation (STAT3 phosphorylation [7]) |
| --- | --- | --- | --- | --- | --- | --- | --- | --- | --- | --- | --- | --- | --- | --- |
| IL-6: bacteria-derived recombinant human IL-6 provided by Sandoz Pharmaceutical | induced proliferation | 5 | induced proliferation | 5 | 60 | did not respond | induced STAT3 phosphorylation in both cell lines | induced proliferation | induced proliferation of MDA 1986LN, JMAR and MDA 686LN cells | – | – | – | – | – |
| N#C/C(=C/c1ccc(O)c(O)c1)C(=O)NCc1ccccc1 [AG490] | – | – | – | – | – | – | – | – | – | no effect | 100 | 8 | 100 | completely inhibited |
